Calls of active or inactive are those of the source. No cut-off for these calls is given here.

The source of these data is ChEMBL document CHEMBL5154740, “Novel Aurora A and Protein Kinase C (α, β1, β2, and θ) Multitarget Inhibitors: Impact of Selenium Atoms on the Potency and Selectivity” (J Med Chem, 2022).

In data set [1] the target is Serine/threonine-protein kinase B-raf (Homo sapiens) (UniProt P15056). The experiment in a line: Inhibition of BRaf (unknown origin) at 50 nM by Z'LYTE screening method relative to control.
Sequence of Serine/threonine-protein kinase B-raf (Homo sapiens) (P15056 whole entry): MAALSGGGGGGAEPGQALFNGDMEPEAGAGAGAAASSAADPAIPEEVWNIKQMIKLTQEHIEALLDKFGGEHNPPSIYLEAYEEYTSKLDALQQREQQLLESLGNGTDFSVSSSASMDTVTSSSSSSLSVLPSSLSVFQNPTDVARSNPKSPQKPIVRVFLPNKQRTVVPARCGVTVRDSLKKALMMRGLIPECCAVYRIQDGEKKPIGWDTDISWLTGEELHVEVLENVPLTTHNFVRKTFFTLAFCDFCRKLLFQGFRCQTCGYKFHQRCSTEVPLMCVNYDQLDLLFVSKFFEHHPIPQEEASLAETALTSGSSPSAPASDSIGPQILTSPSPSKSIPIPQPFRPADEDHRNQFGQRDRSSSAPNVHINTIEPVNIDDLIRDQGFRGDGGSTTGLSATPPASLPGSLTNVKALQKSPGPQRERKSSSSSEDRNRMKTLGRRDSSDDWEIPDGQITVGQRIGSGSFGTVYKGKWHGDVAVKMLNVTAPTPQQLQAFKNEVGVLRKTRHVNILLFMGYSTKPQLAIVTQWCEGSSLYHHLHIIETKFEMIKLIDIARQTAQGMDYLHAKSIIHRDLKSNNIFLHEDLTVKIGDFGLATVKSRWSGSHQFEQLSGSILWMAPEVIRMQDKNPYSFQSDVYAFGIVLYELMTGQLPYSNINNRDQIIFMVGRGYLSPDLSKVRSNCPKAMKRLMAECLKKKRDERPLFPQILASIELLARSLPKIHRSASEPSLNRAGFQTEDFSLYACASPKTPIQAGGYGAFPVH
The target of data set [2] is Cyclin-dependent kinase 5/CDK5 activator 1 (Homo sapiens) (UniProt Q00535+Q15078). The experiment in a line: Inhibition of CDK5/p25 (unknown origin) at 50 nM by Z'LYTE screening method relative to control. Format: protein-complex assay.
Sequence of Cyclin-dependent kinase 5/CDK5 activator 1 (Homo sapiens) (Q00535 whole entry): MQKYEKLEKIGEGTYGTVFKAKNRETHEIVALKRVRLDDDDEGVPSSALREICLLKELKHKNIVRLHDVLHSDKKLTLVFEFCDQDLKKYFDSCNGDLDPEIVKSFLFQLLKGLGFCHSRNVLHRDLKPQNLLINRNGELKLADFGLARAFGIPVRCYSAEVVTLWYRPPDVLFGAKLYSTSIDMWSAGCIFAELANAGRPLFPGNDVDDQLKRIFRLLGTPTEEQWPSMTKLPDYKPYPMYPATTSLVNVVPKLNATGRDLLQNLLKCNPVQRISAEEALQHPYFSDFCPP
Sequence of Cyclin-dependent kinase 5/CDK5 activator 1 (Homo sapiens) (Q15078 99-307 partner limits assumed): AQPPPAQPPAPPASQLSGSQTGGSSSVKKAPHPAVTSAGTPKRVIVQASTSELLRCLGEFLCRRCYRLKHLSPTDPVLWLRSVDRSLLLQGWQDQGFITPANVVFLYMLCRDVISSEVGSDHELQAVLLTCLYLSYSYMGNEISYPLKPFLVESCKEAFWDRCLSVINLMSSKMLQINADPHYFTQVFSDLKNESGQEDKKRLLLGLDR
Data set [3] has as its target Glycogen synthase kinase-3 beta (Homo sapiens) (UniProt P49841). Kind of data set: Inhibition of GSK3b (unknown origin) at 50 nM by Z'LYTE screening method relative to control.
The target of data set [4] is T1, Inhibitor of nuclear factor kappa-B kinase subunit beta (Homo sapiens) (UniProt O14920).
T1 sequence (whole entry): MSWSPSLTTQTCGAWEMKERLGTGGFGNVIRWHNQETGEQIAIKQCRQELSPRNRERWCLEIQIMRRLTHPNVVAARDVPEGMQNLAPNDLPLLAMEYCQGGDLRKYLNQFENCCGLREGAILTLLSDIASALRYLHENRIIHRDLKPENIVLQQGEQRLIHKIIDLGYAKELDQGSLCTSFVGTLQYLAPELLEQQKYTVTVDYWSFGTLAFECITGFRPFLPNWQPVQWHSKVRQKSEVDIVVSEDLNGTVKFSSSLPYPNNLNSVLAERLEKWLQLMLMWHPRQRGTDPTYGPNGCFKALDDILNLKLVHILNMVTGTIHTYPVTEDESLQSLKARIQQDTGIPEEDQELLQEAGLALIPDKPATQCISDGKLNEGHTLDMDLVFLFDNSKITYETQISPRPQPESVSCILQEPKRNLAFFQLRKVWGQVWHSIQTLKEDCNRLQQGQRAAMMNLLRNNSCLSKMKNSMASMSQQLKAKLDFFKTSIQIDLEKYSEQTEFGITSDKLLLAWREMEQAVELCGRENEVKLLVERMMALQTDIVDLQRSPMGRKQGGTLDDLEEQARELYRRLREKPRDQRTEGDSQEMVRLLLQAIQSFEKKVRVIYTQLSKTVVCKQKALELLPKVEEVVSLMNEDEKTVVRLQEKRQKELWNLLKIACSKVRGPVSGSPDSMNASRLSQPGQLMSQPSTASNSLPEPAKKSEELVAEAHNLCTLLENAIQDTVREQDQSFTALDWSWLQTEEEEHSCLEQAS
Kind of data set: Inhibition of IKKbeta (unknown origin) at 50 nM by Z'LYTE screening method relative to control.

In data set [5] the target is Tyrosine-protein kinase JAK2 (Homo sapiens) (UniProt O60674). The experiment in a line: Inhibition of JAK2 (unknown origin) at 50 nM by Z'LYTE screening method relative to control.
Sequence of Tyrosine-protein kinase JAK2 (Homo sapiens) (O60674 whole entry): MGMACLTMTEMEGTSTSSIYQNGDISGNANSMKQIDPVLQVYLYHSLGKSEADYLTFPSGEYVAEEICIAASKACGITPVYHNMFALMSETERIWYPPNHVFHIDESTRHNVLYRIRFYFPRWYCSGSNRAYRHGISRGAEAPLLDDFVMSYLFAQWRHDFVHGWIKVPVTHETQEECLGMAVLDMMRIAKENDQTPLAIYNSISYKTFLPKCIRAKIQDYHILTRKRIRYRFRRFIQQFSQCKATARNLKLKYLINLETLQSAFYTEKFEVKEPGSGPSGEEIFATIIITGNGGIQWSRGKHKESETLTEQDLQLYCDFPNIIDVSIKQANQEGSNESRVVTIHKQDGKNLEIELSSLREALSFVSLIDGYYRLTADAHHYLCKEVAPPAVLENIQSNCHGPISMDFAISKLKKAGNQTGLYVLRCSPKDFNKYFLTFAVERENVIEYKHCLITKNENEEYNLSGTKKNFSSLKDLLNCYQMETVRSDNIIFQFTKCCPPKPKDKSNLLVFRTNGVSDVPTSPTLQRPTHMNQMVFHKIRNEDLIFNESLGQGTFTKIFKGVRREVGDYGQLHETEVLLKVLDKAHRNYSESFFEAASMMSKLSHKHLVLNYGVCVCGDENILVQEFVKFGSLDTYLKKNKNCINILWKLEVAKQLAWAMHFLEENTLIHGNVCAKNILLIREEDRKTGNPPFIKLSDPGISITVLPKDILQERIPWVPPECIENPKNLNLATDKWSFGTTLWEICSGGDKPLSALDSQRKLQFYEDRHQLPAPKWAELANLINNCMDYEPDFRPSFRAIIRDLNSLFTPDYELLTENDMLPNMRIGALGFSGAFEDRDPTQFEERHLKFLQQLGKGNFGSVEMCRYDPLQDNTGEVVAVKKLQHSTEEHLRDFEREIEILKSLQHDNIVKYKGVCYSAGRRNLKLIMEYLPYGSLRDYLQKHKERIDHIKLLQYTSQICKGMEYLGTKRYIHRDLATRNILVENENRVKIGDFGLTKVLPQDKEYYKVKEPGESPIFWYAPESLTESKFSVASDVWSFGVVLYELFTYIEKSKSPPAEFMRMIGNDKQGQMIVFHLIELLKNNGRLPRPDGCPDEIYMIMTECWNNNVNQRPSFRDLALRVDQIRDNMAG
Data set [6] has as its target Tyrosine-protein kinase Lck (Homo sapiens) (UniProt P06239). Kind of data set: Inhibition of LCK (unknown origin) at 50 nM by Z'LYTE screening method relative to control.
Data set [7] concerns the target T2, Serine/threonine-protein kinase TBK1 (Homo sapiens) (UniProt Q9UHD2).
T2 sequence (whole entry): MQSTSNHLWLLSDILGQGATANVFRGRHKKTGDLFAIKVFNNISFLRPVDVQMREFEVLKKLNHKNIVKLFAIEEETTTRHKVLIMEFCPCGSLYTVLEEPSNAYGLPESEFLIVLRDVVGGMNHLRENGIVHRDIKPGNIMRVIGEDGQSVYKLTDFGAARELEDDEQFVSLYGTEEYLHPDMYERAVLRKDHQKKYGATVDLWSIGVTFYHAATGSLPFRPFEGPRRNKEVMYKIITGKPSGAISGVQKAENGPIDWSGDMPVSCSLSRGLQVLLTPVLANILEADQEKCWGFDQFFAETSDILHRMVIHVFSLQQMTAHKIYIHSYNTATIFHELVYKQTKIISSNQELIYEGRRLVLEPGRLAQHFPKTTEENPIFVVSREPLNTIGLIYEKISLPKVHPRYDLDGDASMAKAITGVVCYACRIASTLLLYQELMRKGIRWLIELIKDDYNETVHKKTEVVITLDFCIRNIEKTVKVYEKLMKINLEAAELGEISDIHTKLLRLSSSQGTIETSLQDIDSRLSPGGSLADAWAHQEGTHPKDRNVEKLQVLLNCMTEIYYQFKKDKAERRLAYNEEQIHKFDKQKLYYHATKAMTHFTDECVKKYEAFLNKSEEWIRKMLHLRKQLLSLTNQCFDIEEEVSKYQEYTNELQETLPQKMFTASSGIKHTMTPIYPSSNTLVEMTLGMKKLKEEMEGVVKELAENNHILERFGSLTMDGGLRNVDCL
Kind of data set: Inhibition of TBK1 (unknown origin) at 50 nM by Z'LYTE screening method relative to control.

Data set [8] has as its target T3, TGF-beta receptor type-1 (Homo sapiens) (UniProt P36897).
T3 sequence (whole entry): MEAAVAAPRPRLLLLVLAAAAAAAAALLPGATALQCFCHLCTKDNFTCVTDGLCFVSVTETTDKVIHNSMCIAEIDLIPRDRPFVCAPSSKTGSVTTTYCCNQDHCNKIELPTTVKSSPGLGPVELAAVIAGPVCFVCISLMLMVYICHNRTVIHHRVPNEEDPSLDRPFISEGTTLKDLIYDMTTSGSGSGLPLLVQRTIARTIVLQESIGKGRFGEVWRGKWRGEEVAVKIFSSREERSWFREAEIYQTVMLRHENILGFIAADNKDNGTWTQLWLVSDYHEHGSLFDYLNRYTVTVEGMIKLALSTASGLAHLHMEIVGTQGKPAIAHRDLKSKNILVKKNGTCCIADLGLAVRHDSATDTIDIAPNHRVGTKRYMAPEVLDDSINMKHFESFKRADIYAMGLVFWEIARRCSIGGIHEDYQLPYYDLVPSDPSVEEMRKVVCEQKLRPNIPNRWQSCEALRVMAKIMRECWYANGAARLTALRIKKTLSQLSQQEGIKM
Kind of data set: Inhibition of TGFBR1 (unknown origin) at 50 nM by Z'LYTE screening method relative to control.

Data set [9] in a line: Toxicity in BALB/c mouse implanted with mouse 4T1 cells assessed as loss of body weight at 10 mg/kg, po administered 3 times a week for 30 days. The data set is classed as organism-based. As to conditions: in vivo, 720 h, time 30 day.
The subject of the next data set is MDA-MB-231. Kind of data set: Inhibition of clonogenicity in human MDA-MB-231/M cells assessed as reduction in colony formation incubated for 7 days by crystal violet staining based analysis. The data set is classed as functional, cell-based. As to conditions: time 7.0 day.
For data set [10], the system named is 4T1. The experiment in a line: Antitumor activity against mouse 4T1 cells xenografted in BALB/c mouse assessed as tumor growth inhibition at 10 mg/kg, po administered 3 times a week for 30 days. The data set is classed as functional, organism-based. As to conditions: time 30.0 day.
Data set [11] relates to 4T1. The experiment in a line: Anti-metastasis activity in mouse 4T1 cells xenografted in BALB/c mouse assessed as lung metastases at 10 mg/kg, po administered 3 times a week for 30 days. Format: functional, organism-based. As to conditions: time 30.0 day.

Sequence of Glycogen synthase kinase-3 beta (Homo sapiens) (P49841 whole entry, looked up): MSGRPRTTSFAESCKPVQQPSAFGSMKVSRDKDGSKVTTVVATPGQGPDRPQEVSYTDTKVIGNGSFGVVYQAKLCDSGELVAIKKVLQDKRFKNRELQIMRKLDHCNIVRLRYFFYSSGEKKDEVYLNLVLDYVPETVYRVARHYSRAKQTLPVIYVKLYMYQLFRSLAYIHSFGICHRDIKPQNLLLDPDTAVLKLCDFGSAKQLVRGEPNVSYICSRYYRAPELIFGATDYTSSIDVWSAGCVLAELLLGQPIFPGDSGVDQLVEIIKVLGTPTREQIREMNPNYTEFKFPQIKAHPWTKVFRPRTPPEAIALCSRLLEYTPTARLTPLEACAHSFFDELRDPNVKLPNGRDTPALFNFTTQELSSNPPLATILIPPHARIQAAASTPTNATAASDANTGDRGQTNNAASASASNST
Sequence of Tyrosine-protein kinase Lck (Homo sapiens) (P06239 2-509 limits assumed): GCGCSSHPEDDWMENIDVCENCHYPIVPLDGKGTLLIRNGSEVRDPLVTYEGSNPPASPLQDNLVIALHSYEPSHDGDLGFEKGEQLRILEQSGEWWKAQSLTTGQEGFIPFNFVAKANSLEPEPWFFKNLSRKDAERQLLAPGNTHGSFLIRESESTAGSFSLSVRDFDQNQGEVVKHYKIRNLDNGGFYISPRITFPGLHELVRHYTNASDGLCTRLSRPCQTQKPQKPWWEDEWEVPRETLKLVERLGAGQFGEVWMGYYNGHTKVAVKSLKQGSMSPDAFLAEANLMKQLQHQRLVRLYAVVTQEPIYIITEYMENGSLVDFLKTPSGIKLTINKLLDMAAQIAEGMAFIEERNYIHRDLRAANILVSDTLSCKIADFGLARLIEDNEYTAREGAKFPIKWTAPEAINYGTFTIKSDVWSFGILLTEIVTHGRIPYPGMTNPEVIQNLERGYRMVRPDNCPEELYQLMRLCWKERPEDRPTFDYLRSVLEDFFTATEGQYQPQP

With `O=c1c2ccccc2[se]n1-c1nc(NC2CCCCC2)c2nc[nH]c2n1`, the inhibition in data set [1] was determined as 10%; in data set [2], 4%; in data set [3] it was 10%; in [4] it was 6%; in data set [5], 17%; in data set [6], 13%. Besides, the inhibition in data set [7] was determined as 0%; in data set [8] it was 11%.
With `O=C1c2ccccc2CN1c1nc(NC2CCCCC2)c2nc[nH]c2n1`, the inhibition in [1] was found to be 7%; in [2], 0%; in data set [3], 7%; in data set [4] it was 6%; in data set [5], 15%; in data set [6], 7%. The inhibition was 0% in data set [7] and 3% in data set [8]. For the same molecule, the Activity result in data set [9] is listed as “Toxic”.
In the case of `O=c1c2ccccc2[se]n1-c1nc(N[C@H]2CC[Se]C2)c2nc[nH]c2n1`, the inhibition is 0% in [1]; 8% in [2]; 29% in [3]; 9% in data set [4]; 18% in data set [5]; 2% in data set [6]. Moreover, the inhibition in data set [7] and in data set [8] was 0% in each case. Besides, the inhibition result in the data set on MDA-MB-231 is “Active”. Besides, the Activity entry in data set [9] is given as “Non-Toxic”. The outcome in the data set with 4T1 [10] and with 4T1 [11] was Active.

The term inhibition denotes the percentage by which the read-out fell short of the control.
